The results in this text go back to patent publication US9994576B2, “Substituted pyrazolo[3,4-d]pyrimidines as kinase inhibitors” (PRINCIPIA BIOPHARMA INC., priority 2012, dated 2018).

The assay addresses protein target (Homo sapiens (Human), UniProt Q06187). Briefly: Reversibility of binding (compound in solution before/after denaturation or digestion of target, HPLC-MS/MS). As to conditions: native (folded) target in excess over compound. As to the method: The following approach was developed to differentiate compounds that form irreversible covalent bond with their targets, such as non-cyano containing acrylamide compounds, from compound that form reversible covalent bond i.e., compounds and/or pharmaceutically acceptable salts of the present disclosure. […] The reactions were then treated with perturbations including both denaturation with 5 M guanidine hydrochloride and digestion with trypsin, disrupting proper folding of the target. […] The concentration of compound in solution was assessed both preceding and following perturbation using high performance liquid chromatography (HPLC) coupled to tandem mass spectrometry.

SMILES strings stand for the structures.

Chain of protein target (Q06187 whole entry): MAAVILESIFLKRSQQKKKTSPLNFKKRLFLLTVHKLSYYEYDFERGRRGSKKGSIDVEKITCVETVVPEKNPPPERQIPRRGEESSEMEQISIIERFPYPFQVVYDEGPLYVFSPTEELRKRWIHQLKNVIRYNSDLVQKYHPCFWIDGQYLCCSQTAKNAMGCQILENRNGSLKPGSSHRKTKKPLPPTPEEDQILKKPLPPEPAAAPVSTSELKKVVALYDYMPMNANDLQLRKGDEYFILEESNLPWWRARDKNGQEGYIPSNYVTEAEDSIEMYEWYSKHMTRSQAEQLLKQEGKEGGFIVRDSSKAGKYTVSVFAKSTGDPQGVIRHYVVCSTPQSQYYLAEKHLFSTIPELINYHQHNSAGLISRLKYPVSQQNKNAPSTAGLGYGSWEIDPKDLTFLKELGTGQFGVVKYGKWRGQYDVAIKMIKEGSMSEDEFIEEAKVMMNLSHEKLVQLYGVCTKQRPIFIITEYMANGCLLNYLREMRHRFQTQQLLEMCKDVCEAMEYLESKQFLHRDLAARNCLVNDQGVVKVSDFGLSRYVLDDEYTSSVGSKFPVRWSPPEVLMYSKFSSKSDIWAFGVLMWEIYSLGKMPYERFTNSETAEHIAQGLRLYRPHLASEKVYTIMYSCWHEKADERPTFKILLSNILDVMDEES

For `CN(C1COC1)C(C)(C)C=C(C#N)C(=O)N1CCC[C@H]1Cn1nc(-c2ccc(Oc3ccccc3)cc2F)c2c(N)ncnc21` [Example 10, 2-[(2S)-2-[[4-amino-3-(2-fluoro-4-phenoxy-phenyl)pyrazolo[3,4-d]pyrimidin-1-yl]methyl]pyrrolidine-1-carbonyl]-4-methyl-4-[methyl(oxetan-3-yl)amino]pent-2-enenitrile], the “Compound in solution in the native state?” value is listed as “no”.
